Assay results taken from ChEMBL document CHEMBL1926578, “On a possible neutral charge state for the catalytic dyad in β-secretase when bound to hydroxyethylene transition state analogue inhibitors” (J Med Chem, 2011).
*1 amine or outer side, *2 acyl side, *3 side chain or, on linkers, in order; H or OH if unused. Where a SMILES comes first, the peptide text is derived from it. [ ]: non-standard residue; d: D form. X1 = CC(C)C[C@H](N[*:1])[C@@H](O)C[C@H](C(=O)[*:2])C(C)C

Target: Beta-secretase 1 (Homo sapiens, UniProt P56817)
Sequence (P56817 whole entry): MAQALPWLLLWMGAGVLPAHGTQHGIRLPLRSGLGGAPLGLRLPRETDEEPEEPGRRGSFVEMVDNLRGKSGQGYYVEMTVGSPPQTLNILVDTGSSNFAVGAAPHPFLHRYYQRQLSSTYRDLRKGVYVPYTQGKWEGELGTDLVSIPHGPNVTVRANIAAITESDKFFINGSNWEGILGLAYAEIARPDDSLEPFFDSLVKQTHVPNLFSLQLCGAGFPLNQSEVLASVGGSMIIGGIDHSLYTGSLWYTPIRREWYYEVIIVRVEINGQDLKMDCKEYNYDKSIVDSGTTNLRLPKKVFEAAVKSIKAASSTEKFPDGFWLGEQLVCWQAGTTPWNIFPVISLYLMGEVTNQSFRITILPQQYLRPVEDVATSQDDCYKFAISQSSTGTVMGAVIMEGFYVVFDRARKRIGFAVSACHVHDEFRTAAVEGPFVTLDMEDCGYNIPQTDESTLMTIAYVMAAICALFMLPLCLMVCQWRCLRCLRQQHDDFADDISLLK

IC50	SMILES
45.5 nM	CCC(C)[C@H](NC(=O)[C@@H](N)CCC(N)=O)C(=O)N[C@@H](CC(=O)O)C(=O)N[C@@H](CC(C)C)[C@@H](O)C[C@@H](C)C(=O)N[C@@H](C)C(=O)N[C@@H](CCC(=O)O)C(=O)N[C@@H](Cc1ccccc1)C(=O)O (single isomer, unassigned)
165 nM	CC(C)C[C@H](NC(=O)[C@H](CC(N)=O)NC(=O)[C@@H](NC(=O)[C@@H](N)CCC(=O)O)C(C)C)[C@@H](O)C[C@H](C(=O)N[C@@H](C)C(=O)N[C@@H](CCC(=O)O)C(=O)N[C@@H](Cc1ccccc1)C(=O)O)C(C)C (H-EVN[X1]AEF-OH)
